Test results taken from patent US20230233569A1 (Revolution Medicines, Inc., priority 2020, published 2023).
“And” between values parts separate entries of the source, which are not always exact repeats. Identical values can stand only once. Like-named read-outs stand apart in the source and are kept apart here.

Tests used:
[1] = system: K-Ras G12C (NCI-H358 cells); test: Potency assay: pERK (AlphaLISA SureFire or In-Cell Western); format: cell-based; conditions: Homo sapiens
Experimental: (§1) The purpose of this assay is to measure the ability of test compounds to inhibit K-Ras in cells. […] This procedure measures a decrease in cellular pERK in response to test compounds.
(§2) NCI-H358 cells were grown and maintained using media and procedures recommended by the ATCC. On the day prior to compound addition, cells were plated in 384-well cell culture plates (40 μl/well) and grown overnight in a 37° C., 5% CO2 incubator. Test compounds were prepared in 10, 3-fold dilutions in DMSO, with a high concentration of 10 mM. On the day of assay, 40 nL of test compound was added to each well of cell culture plate using an Echo550 liquid handler (LabCyte®). Concentrations of test compound were tested in duplicate. After compound addition, cells were incubated 4 hours at 37° C., 5% CO2. Following incubation, culture medium was removed and cells were washed once with phosphate buffered saline.
(§3) In some experiments, cellular pERK level was determined using the AlphaLISA SureFire Ultra p-ERK1/2 Assay Kit (PerkinElmer). Cells were lysed in 25 μL lysis buffer, with shaking at 600 RPM at room temperature. […] After a 2-hour incubation in the dark, 5 μL donor mix was added, plate was sealed, and incubated 2 hours at room temperature. Signal was read on an Envision plate reader (PerkinElmer) using standard AlphaLISA settings. Analysis of raw data was carried out in Excel (Microsoft) and Prism (GraphPad). Signal was plotted vs. the decadal logarithm of compound concentration, and IC50 was determined by fitting a 4-parameter sigmoidal concentration response model.
In other experiments, cellular pERK was determined by In-Cell Western. […] Fixed cells were washed 4 times for 5 minutes with TBS containing 0.1% Triton X-100 (TBST) and then blocked with 100 μL Odyssey blocking buffer (LI-COR) for 60 minutes at room temperature. […] Cells were washed 4 times for 5 minutes with TBST. Secondary antibody (IR-800CW rabbit, LI-COR, diluted 1:800) and DNA stain DRAQ5 (LI-COR, diluted 1:2000) were added and incubated 1-2 hours at room temperature. Cells were washed 4 times for 5 minutes with TBST. Plates were scanned on a LI-COR Odyssey CLx Imager. Analysis of raw data was carried out in Excel (Microsoft) and Prism (GraphPad). Signal was plotted vs. the decadal logarithm of compound concentration, and IC50 was determined by fitting a 4-parameter sigmoidal concentration response model.
as §1
as §2, with “mM. On day of” for “mM. On the day of”, “assay, 40 nl of test” for “assay, 40 nL of test”
as §3, with “μl” for “μL”, “sealed” for “sealed,”

KRAS G12S = KRAS G12S (Homo sapiens, UniProt P01116+P62937, G12S); test: Disruption of BRAF RBD interaction with Ras (FRET / MOA assay, with Cyclophilin A); format: biochemical; conditions: read-out: KRAS G12S FRET data, IC50
Summary of the method: (§4)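 TR-FRET readout: a drop in ratio relative to DMSO wells marks disruption of the K-Ras:BRAF RBD complex via compound-induced K-Ras–Cyclophilin A ternary complex. Dosing used ten 3-fold steps from 30 μM final, 3 h at 25 °C, then Eu-anti-His 10 nM plus APC-anti-GST 50 nM for another 1.5 h. Values are IC50s.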

KRAS G12C = KRAS G12C (Homo sapiens, UniProt P01116+P62937, G12C); test: as above; format: biochemical; conditions: KRAS G12C; read-out: KRAS G12C FRET data IC50
Summary of the method: as §4

KRAS WT = KRAS WT (Homo sapiens, UniProt P01116+P62937); test: as above; format: biochemical; conditions: KRAS WT; read-out: KRAS WT FRET data IC50
Summary of the method: as §4

KRAS G13D = KRAS G13D (Homo sapiens, UniProt P01116+P62937, G13D); test: as above; format: biochemical; conditions: KRAS G13D; read-out: KRAS G13D FRET data IC50
Summary of the method: as §4

KRAS G12V = KRAS G12V (Homo sapiens, UniProt P01116+P62937, G12V); test: as above; format: biochemical; conditions: KRAS G12V; read-out: KRAS G12V FRET data IC50
Summary of the method: as §4

KRAS G12D = KRAS G12D (Homo sapiens, UniProt P01116+P62937, G12D); test: as above; format: biochemical; conditions: read-out: KRAS G12D FRET data, IC50
Summary of the method: as §4

KRAS G13C = KRAS G13C (Homo sapiens, UniProt P01116+P62937, G13C); test: as above; format: biochemical; conditions: KRAS G13C; read-out: KRAS G13C FRET data IC50
Summary of the method: as §4

NRAS G12C = NRAS G12C (Homo sapiens, UniProt P01111+P62937, G12C); test: as above; format: biochemical; conditions: NRAS G12C; read-out: NRAS G12C FRET data IC50
NCI-H358 (K-Ras G12C) = test: CellTiter-Glo cell viability assay, 5-day treatment; format: cell-based; conditions: Homo sapiens
Summary of the method: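 Compounds were dispensed directly onto seeded cells and incubated for 5 days, then plates were equilibrated to room temperature for about 30 minutes before luminescence reading. Signals were expressed as percent of the mean DMSO control and fitted with a four-parameter logistic curve.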

[2] = NCI-H358, H358 KRAS G12C, read-out: pERK EC50
[3] = NCI-H358, H358, K-Ras G12C, read-out: Additional H358 Cell Viability assay data (K-Ras G12C, IC50)

KRAS G13C, sequence (P01116 1-169 isoform P01116-2 G13C): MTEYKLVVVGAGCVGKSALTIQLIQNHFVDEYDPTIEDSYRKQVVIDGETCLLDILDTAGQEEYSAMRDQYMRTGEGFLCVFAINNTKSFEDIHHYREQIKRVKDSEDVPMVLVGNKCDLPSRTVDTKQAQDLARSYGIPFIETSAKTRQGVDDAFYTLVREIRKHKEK
KRAS G13C, sequence (P62937 whole entry): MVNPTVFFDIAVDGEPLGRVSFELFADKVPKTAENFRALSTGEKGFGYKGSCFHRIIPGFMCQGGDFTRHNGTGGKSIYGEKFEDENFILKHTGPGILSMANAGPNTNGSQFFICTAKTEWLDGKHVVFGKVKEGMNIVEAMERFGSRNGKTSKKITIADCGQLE
KRAS G13D, sequence (P01116 1-169 isoform P01116-2 G13D limits assumed): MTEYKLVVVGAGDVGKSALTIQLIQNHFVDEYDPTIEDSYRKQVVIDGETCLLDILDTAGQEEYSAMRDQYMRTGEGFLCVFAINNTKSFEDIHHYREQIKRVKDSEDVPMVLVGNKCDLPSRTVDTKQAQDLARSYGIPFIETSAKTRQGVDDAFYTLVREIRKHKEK
KRAS G13D, sequence (P62937 whole entry): as the sequence (P62937 whole entry) above
KRAS G12C, sequence (P01116 1-169 isoform P01116-2 G12C): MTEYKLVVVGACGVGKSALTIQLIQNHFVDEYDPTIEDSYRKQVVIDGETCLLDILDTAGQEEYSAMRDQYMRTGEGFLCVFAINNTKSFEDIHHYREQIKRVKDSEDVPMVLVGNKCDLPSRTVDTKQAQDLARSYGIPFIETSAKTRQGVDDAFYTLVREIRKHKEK
KRAS G12C, sequence (P62937 whole entry): as the sequence (P62937 whole entry) above
NRAS G12C, sequence (P01111 whole entry G12C): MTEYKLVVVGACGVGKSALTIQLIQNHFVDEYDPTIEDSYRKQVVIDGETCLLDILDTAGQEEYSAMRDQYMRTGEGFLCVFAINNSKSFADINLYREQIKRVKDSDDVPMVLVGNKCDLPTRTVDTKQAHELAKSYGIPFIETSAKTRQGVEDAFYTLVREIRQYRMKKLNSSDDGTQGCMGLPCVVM
NRAS G12C, sequence (P62937 whole entry): as the sequence (P62937 whole entry) above
KRAS G12V, sequence (P01116 1-169 isoform P01116-2 G12V limits assumed): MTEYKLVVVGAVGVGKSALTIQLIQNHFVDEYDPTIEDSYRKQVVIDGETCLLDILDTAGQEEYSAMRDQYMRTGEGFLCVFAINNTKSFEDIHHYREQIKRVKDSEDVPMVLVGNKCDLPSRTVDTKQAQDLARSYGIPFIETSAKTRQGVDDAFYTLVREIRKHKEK
KRAS G12V, sequence (P62937 whole entry): as the sequence (P62937 whole entry) above
KRAS G12D, sequence (P01116 1-169 isoform P01116-2 G12D limits assumed): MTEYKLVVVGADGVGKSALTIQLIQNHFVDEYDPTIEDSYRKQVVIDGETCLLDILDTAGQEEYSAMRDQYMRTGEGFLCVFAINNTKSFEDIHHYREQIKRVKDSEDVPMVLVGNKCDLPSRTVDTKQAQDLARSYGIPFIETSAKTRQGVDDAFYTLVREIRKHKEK
KRAS G12D, sequence (P62937 whole entry): as the sequence (P62937 whole entry) above
KRAS WT, sequence (P01116 1-169 isoform P01116-2 limits assumed): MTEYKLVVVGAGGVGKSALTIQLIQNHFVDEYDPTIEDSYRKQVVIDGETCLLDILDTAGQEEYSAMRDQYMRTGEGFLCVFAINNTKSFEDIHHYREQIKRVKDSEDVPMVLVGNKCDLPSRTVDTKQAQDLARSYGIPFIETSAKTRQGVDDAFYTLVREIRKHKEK
KRAS WT, sequence (P62937 whole entry): as the sequence (P62937 whole entry) above
KRAS G12S, sequence (P01116 1-169 isoform P01116-2 G12S limits assumed): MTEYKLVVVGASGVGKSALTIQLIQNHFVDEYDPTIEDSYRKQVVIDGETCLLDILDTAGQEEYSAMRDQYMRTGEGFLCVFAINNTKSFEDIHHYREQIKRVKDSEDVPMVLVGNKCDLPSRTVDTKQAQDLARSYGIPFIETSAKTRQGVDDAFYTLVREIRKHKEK
KRAS G12S, sequence (P62937 whole entry): as the sequence (P62937 whole entry) above

Compound	EC50 [1, 2] [µM]	IC50 (KRAS G12S)	IC50 (KRAS G12C)	IC50 (KRAS WT)	IC50 (KRAS G13D)	IC50 (KRAS G12V)	IC50 (KRAS G12D)	IC50 (KRAS G13C)	IC50 (NRAS G12C)	IC50 (NCI-H358 (K-Ras G12C); [3]) [µM]	EC50 ([1]; NCI-H358, read-out: pERK EC50) [µM]	IC50 (NCI-H358 (K-Ras G12C); NCI-H358, read-out: Additional H358 Cell Viability assay data (K-Ras G12C, IC50, uM), H358, K-Ras G12C) [µM]
CCn1c(-c2cncnc2)c2c3cc(ccc31)-c1cc(O)cc(c1)C[C@H](NC(=O)[C@H](C(C)C)N(C)C(=O)[C@H]1CCN(C(=O)C#CCN(C)C)C1)C(=O)N1CCC[C@H](N1)C(=O)OCC(C)(C)C2 [Example A108]	< 5	1 to 10 µM	< 10 nM	1 to 10 µM	1 to 10 µM	1 to 10 µM	1 to 10 µM	10 to 100 nM	< 10 nM	< 0.01		
CC#CC(=O)N1CC[C@H](C(=O)N(C)[C@@H](C(=O)N[C@H]2Cc3cc(O)cc(c3)-c3ccc4c(c3)c(c(-c3cccnc3[C@H](C)OC)n4CC)CC(C)(C)COC(=O)[C@@H]3CCCN(N3)C2=O)C(C)C)C1 [Example A199]											< 5	0.1 to 1
CCn1c(-c2cccnc2[C@H](C)OC)c2c3cc(ccc31)-c1cc(sn1)C[C@H](NC(=O)[C@H](C(C)C)N(C)C(=O)[C@@H]1CCN(C(=O)C#CCN3CCOCC3)C1)C(=O)N1CCC[C@H](N1)C(=O)OCC(C)(C)C2 [Example A201]	< 5	> 10 µM	10 to 100 nM	> 10 µM	> 10 µM	> 10 µM	> 10 µM	1000 to 10000 nM	100 to 1000 nM	0.01 to 0.1		
CCn1c(-c2cccnc2[C@H](C)OC)c2c3cc(ccc31)-c1csc(n1)C[C@H](NC(=O)[C@H](C(C)C)N(C)C(=O)[C@H]1CCN(C(=O)/C=C/CN(C)C)C1)C(=O)N1CCC[C@H](N1)C(=O)OCC(C)(C)C2 [Example A282]	< 5	1 to 10 µM	100 to 1000 nM	1 to 10 µM	1 to 10 µM	1 to 10 µM	1 to 10 µM	1000 to 10000 nM	100 to 1000 nM	0.01 to 0.1		
C=CC(=O)N1CC[C@H](C(=O)N(C)[C@H](C(=O)N[C@H]2Cc3cc(O)cc(c3)-c3ccc4c(c3)c(c(-c3ccc5c(c3)CN(C)C5)n4CC)CC(C)(C)COC(=O)[C@@H]3CCCN(N3)C2=O)C(C)C)C1 [Example A212]	< 5	1 to 10 µM and > 10 µM	100 to 1000 nM and 1000 to 10000 nM	1 to 10 µM and > 10 µM	1 to 10 µM and > 10 µM	1 to 10 µM and > 10 µM	> 10 µM	1000 to 10000 nM and > 10000 nM	100 to 1000 nM and 1000 to 10000 nM			
C=CC(=O)N1CC[C@H](C(=O)N(C)[C@H](C(=O)N[C@H]2Cc3cccc(c3)-c3ccc4c(c3)c(c(-c3cccnc3COC)n4CC)CC(C)(C)COC(=O)[C@@H]3CCCN(N3)C2=O)C(C)C)C1 [Example A65]	< 5									0.1 to 1		
CCn1c(-c2cccnc2[C@H](C)OC)c2c3cc(ccc31)-c1cccc(c1)C[C@H](NC(=O)[C@H](C(C)C)N1CC[C@@]3(CCN(C(=O)C#C[C@@H]4COCCN4C4COC4)C3)C1=O)C(=O)N1CCC[C@H](N1)C(=O)OCC(C)(C)C2 [Example A566]	< 5									< 0.01		
CCn1c(-c2cccnc2[C@H](C)OC)c2c3cc(ccc31)-c1cc(O)cc(c1)C[C@H](NC(=O)[C@H](C(C)C)N(C)C(=O)[C@H]1CCN(C(=O)C#CCN3CCOCC3)C1)C(=O)N1CCC[C@H](N1)C(=O)OCC(C)(C)C2 [Example A182]	< 5	0.1 to 1 µM and 1 to 10 µM	10 to 100 nM and < 10 nM	0.1 to 1 µM and 1 to 10 µM	0.1 to 1 µM and 1 to 10 µM	0.1 to 1 µM and 1 to 10 µM	1 to 10 µM and > 10 µM	1000 to 10000 nM and 10 to 100 nM	10 to 100 nM and < 10 nM	0.01 to 0.1		
CCn1c(-c2cccnc2[C@H](C)OC)c2c3cc(ccc31)-c1cccc(n1)C[C@H](NC(=O)[C@H](C(C)C)N1CC[C@@]3(CCN(C(=O)C#C[C@@H]4COCCN4C)C3)C1)C(=O)N1CCC[C@H](N1)C(=O)OCC(C)(C)C2 [Example A549]	< 5									< 0.01		
C=CC(=O)N1CC(OC[C@H](C(=O)N[C@H]2Cc3cccc(c3)-c3ccc4c(c3)c(c(-c3cccnc3[C@H](C)OC)n4CC)CC(C)(C)COC(=O)[C@@H]3CCCN(N3)C2=O)C(C)C)C1 (racemic) [Example A483]	< 5	> 10 µM	100 to 1000 nM	1 to 10 µM	> 10 µM	1 to 10 µM	> 10 µM	1000 to 10000 nM	100 to 1000 nM			
C=CC(=O)N1CC[C@]2(CCN([C@H](C(=O)N[C@H]3Cc4cc(O)cc(c4)-c4ccc5c(c4)c(c(-c4ccccc4CCOC)n5CC)CC(C)(C)COC(=O)[C@@H]4CCCN(N4)C3=O)C(C)C)C2=O)C1 [Example A216]	< 5	1 to 10 µM and > 10 µM	100 to 1000 nM and 1000 to 10000 nM	1 to 10 µM and > 10 µM		1 to 10 µM and > 10 µM	> 10 µM	100 to 1000 nM and > 10000 nM				
C=CC(=O)N1CC[C@H](C(=O)N(C)[C@H](C(=O)N[C@H]2Cc3cc(O)cc(c3)-c3ccc4c(C(C)(C)C#N)c(-c5ccccc5CCOC)n(c4c3)CC(C)(C)COC(=O)[C@@H]3CCCN(N3)C2=O)C(C)C)C1 [Example A12]	< 5											
CCn1c(-c2cccnc2[C@H](C)OC)c2c3cc(ccc31)-c1cccc(c1)C[C@H](NC(=O)[C@H](C(C)C)N(C)C(=O)[C@H]1CCN(C(=O)C#C[C@@H]3CCO3)C1)C(=O)N1CCC[C@H](N1)C(=O)OCC(C)(C)C2 [Example A509]	< 5								< 10 nM	< 0.01		
C=CC(=O)N1CCC(C(=O)N(C)C(C(=O)NC2Cc3nc(cs3)-c3ccc4c(c3)c(c(-c3cccnc3C(C)OC)n4CC)CC(C)(C)COC(=O)C3CCCN(N3)C2=O)C(C)C)C1 (centres unmarked) [Example A279]	< 5	> 10 µM	1 µM to 10 µM and > 10 µM (2×)	> 10 µM	> 10 µM	> 10 µM	> 10 µM	1 µM to 10 µM and > 10 µM (2×)	1 µM to 10 µM and > 10 µM (2×)			
